Laboratory results taken from patent publication US20100267803A1, “Regulators Of Fat Metabolism As Anti-Cancer Targets” (The Research Foundation of State University Of New York, priority 2008, published 2010).

Assays:
[1] = test system: NR1D1 mRNA; experiment: qRT-PCR of NR1D1 mRNA in BT474 cells; assay type: cell-based, human; settings: shRNA 48 h, qRT-PCR
Protocol: (§1) FIG. 2 NR1D1 and PBP are necessary for survival of ERBB2-positive cells. (a) PBP and NR1D1 mRNA levels of BT474 cells transfected with luciferase (control), PBP or NR1D1 shRNAs for 48 h, analyzed by qRT-PCRs. (Error bars are s.d from 3 experiments; ***P<0.003, **P=0.01, *P=0.02). (b) BMAL1 luciferase reporter activity of BT474 cells transfected with either empty vector (control), or NR1D1 shRNA for 48 h.
(§2) FIG. 3 PPAR. inhibition impacts NR1D1 expression and ERBB2-positive cells viability. (a) Cell counts of BT474, MDA-MB-361, MCF-7 and HMEC cells treated with vehicle, 10 and 20 μM of the PPAR. antagonist GW9662 for 72 hrs. Results represented as % of control (vehicle). (Error bars are s.d from 3 individual experiments; *P>0.2, **P<0.05, ***P<0.002). (b) BT474 cells treated with vehicle or 20 μM of GW9662 for 48 h were immuno-stained for cleaved Caspase-3. (c) Quantification of Caspase-3 signal. (Error bars are s.d from 3 individual experiments; ***P=0.002). (d) aP2 and NR1D1 mRNA levels of BT474 cells treated with vehicle (control) and 20 μM of GW9662 for 48 h, analyzed by qRT-PCRs. […]

[2] = test system: MDH1 mRNA; experiment: qRT-PCR of MDH1 mRNA in BT474 cells; assay type: cell-based, human; settings: shRNA 48 h
Protocol: (§3) FIG. 5. (a) MDH1 and ME1 mRNA levels of BT474 cells treated with luciferase (control), PBP or NR1D1 shRNAs for 48 h, analyzed by qRT-PCRs. (Error bars are s.d from 3 experiments; **P<0.002 (b) BT474 and MCF-7 cells were transfected with luciferase (control) MDH1 and ME1 shRNAs (Error bars are s.d from 3 individual experiments; ***P=0.0003). (c) BT474 cells) assayed for cleaved Caspase-3 signal by immunofluorescence 48 h after transfection; cell nuclei were stained with Hoechst 33243. (d) Quantification of cleaved Caspase-3 signal from cells in (c). (Error bars are s.d from 3 individual experiments; ***P<0.005). (e) Enzymes involved in fatty acid synthesis and storage that are regulated by NR1D1 and PBP and their proposed contribution to energy production necessary for survival of ERBB2-positive breast cancer cells.
(§4) Cell viability—apoptosis assays. […] At least 30 fields were imaged per single experiment. […] Immunoblotting. […] PCR reaction was run using standard conditions.

[3] = test system: ME1 mRNA; experiment: qRT-PCR of ME1 mRNA in BT474 cells; assay type: cell-based, human; settings: shRNA 48 h
Protocol: as §3, §4

[4] = test system: NR1D1; experiment: Immunoblot of NR1D1 protein after shRNA; assay type: cell-based, human; settings: after shRNA transfection
Description: as §4

[5] = test system: BMAL1 reporter; experiment: BMAL1 luciferase reporter assay in BT474 cells; assay type: cell-based, human; settings: shRNA 48 h, vs empty vector
Protocol: as §1
as §2, with “(Error bars are s.d from 3 individual experiments; ***P=0.002).” left out
Reporter assays. […] Cells were lysed 48 h post-transfection and firefly (reporter) and renilla luciferase activities were measured using the Dual-Luciferase Reporter Assay kit (Promega) on a BioTek Synergy HT reader. The ratio of Firefly to Renilla luciferase activity was calculated and presented as percentage of control.

[6] = test system: PBP mRNA; experiment: qRT-PCR of PBP mRNA in BT474 cells; assay type: cell-based, human; settings: shRNA 48 h
Protocol: as §1, §4

[7] = test system: PBP; settings: after shRNA transfection
Protocol: Immunoblotting. Cell extracts for western blots were obtained using RIPA buffer (1% Triton X-100, 40mM NaCl, 0.1% SDS, 10 mM Tris pH 8.0) supplemented with complete cocktail of proteinase inhibitors (Roche). For detection of phoshporylated epitopes, the PhosSTOP cocktail of phospatase inhibitors (Roche) was added in the lysis buffer. Protein extracts were separated by SDS-PAGE, transferred to Immobilon-P (Millipore) membranes and immunoblotted according to standard protocols. Blots were imaged using a FluorChem HD (Alpha Innotech) imaging system and images were analyzed by densitometry using the FluorChem 9900 software (Alpha Innotech). Antibodies used: anti-flag (M2; Stratagene), PBP (TRAP220, C-19; Santa Cruz), GAPDH (V-18; Santa Cruz Biotechnology), ERBB2 (clone 42; BD), phospho-ERBB2 (Tyr877, #2241; Cell Signaling Technology), phospho-ERBB2 (Tyr1221/1222, 6B12; Cell Signaling Technology), anti-rabbit IgG-HRP (sc-2204, Santa Cruz Biotechnology), anti-goat IgG-HRP (sc-2768, Santa Cruz Biotechnology), anti-mouse IgG-HRP (#31430; Pierce Biotechnology) qRT-PCR.

Row | Substance | decrease in mRNA levels of target (NR1D1) [1] | MDH1 message levels [2] | ME1 message levels [3] | NR1D1 protein levels [4] | up-regulation of BMAL1 reporter [5] | decrease in mRNA levels of target (PBP) [6] | PBP protein levels [7]
1 | NR1D1 shRNA: shRNA, mature sequence GGCATGGTGTTACTGTGTA (shRNA) | > 60% | significantly decreased | significantly decreased | decreased protein levels | 2.5 fold | – | –
2 | PBP shRNA: shRNA, mature sequence CCGAGTTCCTCTTATCCTA (shRNA) | – | – | – | – | – | > 60% | decreased protein levels
